Patent US20070231298A1, “Cytokine-expressing cancer immunotherapy combinations” (Cell Genesys, Inc., priority 2006, published 2007)

Experiments:
[1] = tested on: IFN-gamma-secreting T-cells; experiment: Naïve T-cell priming, IFN-gamma-secreting T-cells in splenocytes, TKI started before immunization; settings: 200 mg/kg daily oral gavage prior to and/or concurrently with cytokine-expressing cancer immunotherapy; ovalbumin-specific peptide stimulation
[2] = tested on: ovalbumin-specific CD8 T cells; experiment: Expansion of adoptively transferred OT-1 transgenic T cells, tetramer/CD8 FACs; settings: 200 mg/kg daily oral gavage from Day-7 for 20 days plus GM.ova on day 3; Day 9; relative to immunotherapy alone
Pyk2 = target: T1, Pyk2 (Homo sapiens, UniProt Q14289); experiment: Western blot of phosphorylated Pyk2 in stimulated Jurkat cells; type: cell-based; settings: anti-CD3 10 minutes, increasing concentrations 0, 12.5, 50 mcg/ml
T1 construct: Nutrients-starved human T cell clones (Jurkat cells) were stimulated; endogenous in cells; host or cells: Jurkat cells (human T cell line)
T1 sequence (Q14289 whole entry): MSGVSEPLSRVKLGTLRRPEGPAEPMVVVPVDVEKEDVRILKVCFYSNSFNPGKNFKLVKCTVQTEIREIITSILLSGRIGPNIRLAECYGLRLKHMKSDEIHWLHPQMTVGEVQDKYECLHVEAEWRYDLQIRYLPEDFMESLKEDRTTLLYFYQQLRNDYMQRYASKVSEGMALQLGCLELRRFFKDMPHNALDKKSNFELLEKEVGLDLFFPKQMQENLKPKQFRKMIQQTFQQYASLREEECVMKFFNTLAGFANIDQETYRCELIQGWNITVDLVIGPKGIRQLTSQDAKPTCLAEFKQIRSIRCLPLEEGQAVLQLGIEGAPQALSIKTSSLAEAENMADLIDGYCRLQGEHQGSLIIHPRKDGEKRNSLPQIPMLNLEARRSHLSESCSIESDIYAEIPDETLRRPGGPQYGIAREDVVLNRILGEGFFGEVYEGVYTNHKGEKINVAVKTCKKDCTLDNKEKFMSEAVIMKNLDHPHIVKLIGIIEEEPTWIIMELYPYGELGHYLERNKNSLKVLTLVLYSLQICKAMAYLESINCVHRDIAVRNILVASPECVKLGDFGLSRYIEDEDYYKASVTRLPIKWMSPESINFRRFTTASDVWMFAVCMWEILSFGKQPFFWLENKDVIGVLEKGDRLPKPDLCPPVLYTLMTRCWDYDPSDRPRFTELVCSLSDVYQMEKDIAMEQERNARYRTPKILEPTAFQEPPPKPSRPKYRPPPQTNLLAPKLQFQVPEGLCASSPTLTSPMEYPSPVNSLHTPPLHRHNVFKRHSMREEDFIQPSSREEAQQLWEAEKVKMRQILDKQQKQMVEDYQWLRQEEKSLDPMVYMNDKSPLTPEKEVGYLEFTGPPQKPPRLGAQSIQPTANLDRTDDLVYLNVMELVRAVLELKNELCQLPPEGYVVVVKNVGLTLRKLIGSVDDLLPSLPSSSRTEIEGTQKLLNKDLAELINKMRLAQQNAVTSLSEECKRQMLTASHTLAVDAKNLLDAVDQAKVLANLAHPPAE

[3] = tested on: IFN-gamma-secreting T-cells; experiment: Activated T-cells, IFN-gamma-secreting T-cells in splenocytes, TKI started after immunization; type: in vivo, C57Bl6 mice; settings: 200 mg/kg daily oral gavage from Day 15, post immunotherapy (Days 3 and 17); spleens Day 31
From the text: (§1) Mice were sacrificed on Day 31 and the spleens were removed and evaluated for induction of a primary T-cell response by quantifying the number of IFN-gamma-secreting T-cells per 5×10^5 splenocytes when stimulated using an ovalbumin-specific peptide.
as §1

Zap-70 = target: T2, Zap-70 (Homo sapiens, UniProt P43403); settings: Jurkat cells, anti-CD3 10 minutes, increasing concentrations 0, 12.5, 50 mcg/ml
T2 sequence (P43403 1-619): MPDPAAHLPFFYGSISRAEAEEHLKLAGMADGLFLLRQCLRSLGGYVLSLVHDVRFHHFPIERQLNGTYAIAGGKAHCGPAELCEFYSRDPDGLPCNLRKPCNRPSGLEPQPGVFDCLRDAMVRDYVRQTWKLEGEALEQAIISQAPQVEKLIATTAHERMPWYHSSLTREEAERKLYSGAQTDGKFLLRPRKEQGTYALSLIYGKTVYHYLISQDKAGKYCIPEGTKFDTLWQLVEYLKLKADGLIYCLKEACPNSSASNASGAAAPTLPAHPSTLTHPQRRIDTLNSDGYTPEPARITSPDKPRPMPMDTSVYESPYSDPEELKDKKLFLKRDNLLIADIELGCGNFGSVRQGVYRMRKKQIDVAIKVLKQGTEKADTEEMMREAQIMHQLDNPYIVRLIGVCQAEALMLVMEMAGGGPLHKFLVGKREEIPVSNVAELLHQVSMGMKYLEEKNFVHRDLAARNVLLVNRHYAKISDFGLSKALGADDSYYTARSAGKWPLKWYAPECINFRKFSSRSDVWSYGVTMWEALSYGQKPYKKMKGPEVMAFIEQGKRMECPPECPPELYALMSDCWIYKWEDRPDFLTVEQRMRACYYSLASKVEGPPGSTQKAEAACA

| amount of phosphorylated Pyk2 (Pyk2) | amount of phosphorylated Zap-70 (Zap-70) | Structure (SMILES) | number of primed naïve T-cells (IFN-gamma-secreting T-cells per 5×10^5 splenocytes) [1] | absolute number of ovalbumin-specific CD8 T cells in spleen and lymph nodes [2] | number of ova-antigen activated T-cells (IFN-gamma-secreting T-cells per 5×10^5 splenocytes) [3] |
| --- | --- | --- | --- | --- | --- |
| decreased |  | C#Cc1cccc(Nc2ncnc3cc(OCCOC)c(OCCOC)cc23)c1 [erolotinib, N-(3-ethynylphenyl)-6,7-bis(2-methoxy)-4-quinazolinamine] | decrease | increased | slight increase |
| decreased | decreased | COc1cc2ncnc(Nc3ccc(F)c(Cl)c3)c2cc1OCCCN1CCOCC1 [genfitinib] | decrease | increased | slight increase |
